Results: ChEMBL document CHEMBL5214927, “Recent advance on carbamate-based cholinesterase inhibitors as potential multifunctional agents against Alzheimer's disease” (Eur J Med Chem, 2022)

What was measured:
[1] = target: T1, Cholinesterases; ACHE & BCHE (Homo sapiens) (UniProt P06276+P22303); experiment: Selectivity index, ratio of IC50 for human plasma BChE to IC50 for human erythrocyte AChE; assay type: protein assay
[2] = target: T2, Cholinesterase (Homo sapiens, UniProt P06276); experiment: Inhibition of human plasma BChE using S-butyrylthiocholine as substrate by Ellman's method
[3] = target: T3, Acetylcholinesterase (Homo sapiens, UniProt P22303); experiment: Inhibition of human erythrocyte AChE using acetyl-(beta-methyl)thiocholine as substrate by Ellman's method
[4] = target: T2, Cholinesterase; experiment: Binding affinity to human BChE assessed as inhibition constant
[5] = target: T3, Acetylcholinesterase; experiment: Binding affinity to human AChE assessed as inhibition constant
[6] = target: T3, Acetylcholinesterase; experiment: Inhibition of recombinant human AChE using acetylthiocholine as substrate at 100 uM preincubated for 5 mins followed by substrate addition measured for 1 min by Ellman's method relative to control; details: time 6.0 min
[7] = target: T4, Amine oxidase [flavin-containing] A (Homo sapiens, UniProt P21397); experiment: Inhibition of recombinant human MAO-A expressed in BTI-TN-5B1-4 insect cells using p-tyramine as substrate at 100 uM preincubated for 15 mins followed by substrate addition measured after 20 mins by Amplex Red assay relative to control; details: BTI-TN-5B1-4, human, time 35 min
T4 sequence (P21397 whole entry): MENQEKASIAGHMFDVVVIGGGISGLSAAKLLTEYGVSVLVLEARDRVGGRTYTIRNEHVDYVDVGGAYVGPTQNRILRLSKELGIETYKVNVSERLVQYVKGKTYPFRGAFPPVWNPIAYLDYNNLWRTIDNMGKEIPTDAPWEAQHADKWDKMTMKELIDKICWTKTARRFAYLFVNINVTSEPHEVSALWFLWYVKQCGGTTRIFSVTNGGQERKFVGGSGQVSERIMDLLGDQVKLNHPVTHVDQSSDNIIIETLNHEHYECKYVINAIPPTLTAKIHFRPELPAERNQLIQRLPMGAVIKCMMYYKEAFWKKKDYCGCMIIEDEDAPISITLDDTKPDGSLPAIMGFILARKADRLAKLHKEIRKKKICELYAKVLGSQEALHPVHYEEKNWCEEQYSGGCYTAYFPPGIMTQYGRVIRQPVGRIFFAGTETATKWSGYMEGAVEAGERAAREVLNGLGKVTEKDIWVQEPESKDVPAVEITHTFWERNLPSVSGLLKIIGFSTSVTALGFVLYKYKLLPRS

[8] = target: T5, Acetylcholinesterase (Rattus norvegicus, UniProt P37136); experiment: Inhibition of rat AChE by Ellman's method
T5 sequence (P37136 whole entry): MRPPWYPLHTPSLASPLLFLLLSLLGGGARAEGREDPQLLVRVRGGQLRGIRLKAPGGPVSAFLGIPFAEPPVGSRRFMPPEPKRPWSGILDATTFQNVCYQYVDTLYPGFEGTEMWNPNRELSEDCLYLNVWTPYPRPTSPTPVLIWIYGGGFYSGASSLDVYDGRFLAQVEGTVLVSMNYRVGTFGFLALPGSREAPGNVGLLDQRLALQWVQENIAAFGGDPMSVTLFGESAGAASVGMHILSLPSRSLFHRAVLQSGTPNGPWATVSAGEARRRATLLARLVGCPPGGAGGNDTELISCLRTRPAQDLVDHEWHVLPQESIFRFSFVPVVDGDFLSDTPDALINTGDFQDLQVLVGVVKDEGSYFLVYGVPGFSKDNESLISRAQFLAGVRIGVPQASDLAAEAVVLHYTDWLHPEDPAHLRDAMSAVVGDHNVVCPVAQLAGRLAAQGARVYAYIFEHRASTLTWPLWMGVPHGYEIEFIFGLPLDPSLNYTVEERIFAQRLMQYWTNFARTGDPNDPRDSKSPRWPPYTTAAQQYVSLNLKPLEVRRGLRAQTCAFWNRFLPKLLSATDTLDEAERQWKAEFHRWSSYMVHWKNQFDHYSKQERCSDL

[9] = target: T4, Amine oxidase [flavin-containing] A; experiment: Inhibition of MAO-A (unknown origin)
[10] = target: T6, Amine oxidase [flavin-containing] B (Homo sapiens, UniProt P27338); experiment: Inhibition of MAO-B (unknown origin)
T6 sequence (P27338 whole entry): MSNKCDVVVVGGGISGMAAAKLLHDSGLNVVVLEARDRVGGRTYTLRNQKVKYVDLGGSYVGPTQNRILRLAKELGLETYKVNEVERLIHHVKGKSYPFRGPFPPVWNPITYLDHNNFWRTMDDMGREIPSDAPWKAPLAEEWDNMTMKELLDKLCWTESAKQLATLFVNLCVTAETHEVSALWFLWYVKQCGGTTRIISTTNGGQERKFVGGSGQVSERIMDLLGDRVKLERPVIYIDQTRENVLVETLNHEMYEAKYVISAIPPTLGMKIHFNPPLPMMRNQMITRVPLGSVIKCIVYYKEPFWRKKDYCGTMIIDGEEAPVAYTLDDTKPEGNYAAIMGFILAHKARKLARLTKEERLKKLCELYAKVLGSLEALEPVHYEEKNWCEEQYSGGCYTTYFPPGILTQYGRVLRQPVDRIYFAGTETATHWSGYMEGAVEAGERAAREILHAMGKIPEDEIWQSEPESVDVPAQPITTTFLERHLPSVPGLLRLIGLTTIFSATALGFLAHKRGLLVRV

[11] = target: T3, Acetylcholinesterase; experiment: Binding affinity to human AChE assessed as inhibition constant using acetylthiocholine iodide as substrate preincubated for 10 mins followed by substrate addition by Ellman's method
[12] = target: Carbonic anhydrase 1 (Homo sapiens, UniProt P00915); experiment: Binding affinity to human CA1 assessed as inhibition constant using p-nitrophenylacetate as substrate by spectrophotometry
[13] = target: Carbonic anhydrase 2 (Homo sapiens, UniProt P00918); experiment: Binding affinity to human CA2 assessed as inhibition constant using p-nitrophenylacetate as substrate by spectrophotometry
[14] = target: Acetylcholinesterase (Bos taurus, UniProt P23795)
Description: Inhibition of bovine AChE

[15] = target: Cholinesterase (Equus caballus, UniProt P81908); experiment: Inhibition of equine BChE
[16] = target: T5, Acetylcholinesterase; experiment: Inhibition of rat cortex AChE using acetylthiocholine iodide as substrate incubated for 15 mins by Ellman's method
[17] = target: Acetylcholinesterase and butyrylcholinesterase (AChE and BChE) (Rattus norvegicus) (UniProt P37136+Q9JKC1); experiment: Selectivity index, ratio of IC50 for rat serum BChE to IC50 for rat cortex AChE
[18] = target: Butyrylcholinesterase (Rattus norvegicus, UniProt Q9JKC1); experiment: Inhibition of rat serum BChE using butyrylthiocholine iodide as substrate incubated for 15 mins by Ellman's method
[19] = target: T2, Cholinesterase; experiment: Binding affinity of human serum BChE assessed as inhibition constant by Ellman's method
[20] = target: T3, Acetylcholinesterase; experiment: Binding affinity to AChE (unknown origin) assessed as inhibition constant preincubated for 60 mins followed by substrate addition measured after 60 mins by colorimetric method
[21] = target: Beta-secretase 1 (Homo sapiens, UniProt P56817); experiment: Inhibition of BACE1 (unknown origin) using A-beta-PP as substrate by fluorescence based assay
[22] = target: Muscarinic acetylcholine receptor M1 (Homo sapiens, UniProt P11229); experiment: Binding affinity to Muscarinic acetylcholine receptor M1 (unknown origin) assessed as inhibition constant
[23] = target: T3, Acetylcholinesterase; experiment: Inhibition of human AChE
[24] = target: Muscarinic acetylcholine receptor M3 (Homo sapiens, UniProt P20309); experiment: Binding affinity to Muscarinic acetylcholine receptor M3 (unknown origin) assessed as inhibition constant
[25] = target: Muscarinic acetylcholine receptor M2 (Homo sapiens, UniProt P08172); experiment: Binding affinity to Muscarinic acetylcholine receptor M2 (unknown origin) assessed as inhibition constant
[26] = target: T3, Acetylcholinesterase; experiment: Binding affinity to AChE (unknown origin) assessed as inhibition constant using acetylthiocholine iodide as substrate preincubated for 10 mins followed by substrate addition by Ellman's method
[27] = target: T3, Acetylcholinesterase; experiment: Inhibition of recombinant human serum AChE using acetylthiocholine iodide as substrate preincubated for 20 mins followed by substrate addition by Ellman's method
[28] = target: T2, Cholinesterase; experiment: Inhibition of recombinant human serum BChE using acetylthiocholine iodide as substrate preincubated for 20 mins followed by substrate addition by Ellman's method
[29] = target: T1, Cholinesterases; ACHE & BCHE (Homo sapiens); experiment: Selectivity index, ratio of IC50 for recombinant human serum BChE to IC50 for recombinant human serum AChE; assay type: protein assay
[30] = Selectivity index, ratio of IC50 for human plasma BChE to IC50 for electric eel AChE
[31] = target: T3, Acetylcholinesterase; experiment: Inhibition of human whole red blood cells AChE using acetylthiocholine iodide as substrate incubated for 25 mins by Ellman's method
[32] = target: T1, Cholinesterases; ACHE & BCHE (Homo sapiens); experiment: Selectivity index, ratio of IC50 for human whole red blood cells BChE to IC50 for human whole red blood cells AChE
[33] = target: T2, Cholinesterase; experiment: Inhibition of human whole red blood cells BChE using butyrylthiocholine iodide as substrate incubated for 25 mins by Ellman's method

T1 sequence (P06276 whole entry, looked up): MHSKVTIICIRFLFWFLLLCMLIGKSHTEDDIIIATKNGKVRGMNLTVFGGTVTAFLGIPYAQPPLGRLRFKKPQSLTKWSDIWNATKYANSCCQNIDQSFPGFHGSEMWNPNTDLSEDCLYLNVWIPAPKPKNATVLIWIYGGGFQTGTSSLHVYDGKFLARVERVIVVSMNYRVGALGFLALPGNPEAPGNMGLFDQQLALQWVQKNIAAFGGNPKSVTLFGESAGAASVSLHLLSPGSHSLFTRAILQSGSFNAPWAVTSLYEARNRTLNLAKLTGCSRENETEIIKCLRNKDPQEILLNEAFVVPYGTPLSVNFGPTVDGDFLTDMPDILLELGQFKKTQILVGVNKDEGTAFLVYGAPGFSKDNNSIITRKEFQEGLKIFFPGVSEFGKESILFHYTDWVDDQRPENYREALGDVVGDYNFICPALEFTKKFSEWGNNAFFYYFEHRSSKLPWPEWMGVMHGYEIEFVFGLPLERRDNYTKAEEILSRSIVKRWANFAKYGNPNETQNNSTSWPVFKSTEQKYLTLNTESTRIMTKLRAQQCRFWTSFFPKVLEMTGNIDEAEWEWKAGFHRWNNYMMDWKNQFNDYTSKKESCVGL
T1 sequence (P22303 whole entry, looked up): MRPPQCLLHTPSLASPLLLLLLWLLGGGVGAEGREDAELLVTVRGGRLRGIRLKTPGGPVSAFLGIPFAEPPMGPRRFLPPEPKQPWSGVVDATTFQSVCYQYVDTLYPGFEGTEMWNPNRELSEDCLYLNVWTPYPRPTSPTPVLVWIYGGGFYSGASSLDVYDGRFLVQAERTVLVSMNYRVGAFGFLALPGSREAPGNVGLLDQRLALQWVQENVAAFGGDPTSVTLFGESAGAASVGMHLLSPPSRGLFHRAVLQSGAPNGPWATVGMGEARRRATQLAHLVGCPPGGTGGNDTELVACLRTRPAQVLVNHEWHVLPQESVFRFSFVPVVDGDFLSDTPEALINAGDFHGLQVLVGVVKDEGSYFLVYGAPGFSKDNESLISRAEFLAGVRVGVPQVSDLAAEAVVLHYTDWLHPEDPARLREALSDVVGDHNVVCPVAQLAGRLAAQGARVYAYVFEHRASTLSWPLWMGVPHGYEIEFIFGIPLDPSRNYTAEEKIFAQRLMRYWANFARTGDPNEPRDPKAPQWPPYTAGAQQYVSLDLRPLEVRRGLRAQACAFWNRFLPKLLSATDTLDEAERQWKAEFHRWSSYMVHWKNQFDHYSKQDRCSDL
T2 sequence (P06276 whole entry): as the sequence (P06276 whole entry, looked up) above
T3 sequence (P22303 whole entry): as the sequence (P22303 whole entry, looked up) above
Carbonic anhydrase 1, sequence (P00915 whole entry): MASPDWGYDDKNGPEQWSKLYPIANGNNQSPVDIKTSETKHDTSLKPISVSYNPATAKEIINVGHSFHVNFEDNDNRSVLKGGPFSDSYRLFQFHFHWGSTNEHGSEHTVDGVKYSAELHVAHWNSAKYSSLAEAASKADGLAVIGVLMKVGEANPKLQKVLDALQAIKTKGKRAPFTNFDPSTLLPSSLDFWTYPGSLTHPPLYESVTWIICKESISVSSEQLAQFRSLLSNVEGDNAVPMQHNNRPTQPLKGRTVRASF
Muscarinic acetylcholine receptor M2, sequence (P08172 whole entry): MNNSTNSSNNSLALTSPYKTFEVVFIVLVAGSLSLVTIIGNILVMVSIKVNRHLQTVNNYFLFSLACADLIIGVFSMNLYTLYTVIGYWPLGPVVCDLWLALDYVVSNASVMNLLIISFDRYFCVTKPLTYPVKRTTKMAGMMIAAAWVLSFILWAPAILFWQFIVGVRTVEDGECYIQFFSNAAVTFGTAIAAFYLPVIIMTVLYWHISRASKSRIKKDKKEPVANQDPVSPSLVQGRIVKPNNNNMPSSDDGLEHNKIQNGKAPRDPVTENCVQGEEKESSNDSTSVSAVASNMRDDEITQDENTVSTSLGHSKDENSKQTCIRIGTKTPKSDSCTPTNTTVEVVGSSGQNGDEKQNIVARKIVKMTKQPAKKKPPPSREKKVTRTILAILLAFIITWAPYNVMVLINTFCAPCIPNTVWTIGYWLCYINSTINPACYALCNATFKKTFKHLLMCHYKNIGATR
Acetylcholinesterase and butyrylcholinesterase (AChE and BChE) (Rattus norvegicus), sequence (Q9JKC1 1-597, one chain of several): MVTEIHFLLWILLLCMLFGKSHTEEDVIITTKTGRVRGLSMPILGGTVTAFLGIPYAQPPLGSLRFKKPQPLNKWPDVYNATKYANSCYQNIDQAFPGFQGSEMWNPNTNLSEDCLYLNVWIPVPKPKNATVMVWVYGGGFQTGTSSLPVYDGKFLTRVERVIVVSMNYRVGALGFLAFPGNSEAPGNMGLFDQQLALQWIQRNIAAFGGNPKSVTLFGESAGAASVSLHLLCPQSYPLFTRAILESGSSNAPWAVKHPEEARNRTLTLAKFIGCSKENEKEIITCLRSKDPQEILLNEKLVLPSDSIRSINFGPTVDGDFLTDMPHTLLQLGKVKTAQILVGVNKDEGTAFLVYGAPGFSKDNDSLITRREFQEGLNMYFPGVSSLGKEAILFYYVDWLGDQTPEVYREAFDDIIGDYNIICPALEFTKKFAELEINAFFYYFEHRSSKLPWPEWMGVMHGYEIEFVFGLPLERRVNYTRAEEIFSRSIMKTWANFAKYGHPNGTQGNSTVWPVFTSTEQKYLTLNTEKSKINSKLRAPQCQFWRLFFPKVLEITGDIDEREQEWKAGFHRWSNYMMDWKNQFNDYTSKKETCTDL
Muscarinic acetylcholine receptor M1, sequence (P11229 whole entry): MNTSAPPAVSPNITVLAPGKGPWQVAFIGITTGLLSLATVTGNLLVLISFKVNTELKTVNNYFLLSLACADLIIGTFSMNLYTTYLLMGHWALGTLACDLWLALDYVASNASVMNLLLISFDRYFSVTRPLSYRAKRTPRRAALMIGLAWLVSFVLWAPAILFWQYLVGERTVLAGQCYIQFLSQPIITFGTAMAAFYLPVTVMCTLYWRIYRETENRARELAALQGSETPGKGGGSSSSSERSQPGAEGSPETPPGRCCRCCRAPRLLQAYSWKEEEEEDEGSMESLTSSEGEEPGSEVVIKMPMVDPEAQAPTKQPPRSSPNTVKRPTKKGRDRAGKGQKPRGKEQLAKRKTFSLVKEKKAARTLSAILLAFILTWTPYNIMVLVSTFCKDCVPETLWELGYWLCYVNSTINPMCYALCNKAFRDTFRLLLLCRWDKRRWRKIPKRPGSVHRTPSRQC
Acetylcholinesterase (Bos taurus, UniProt P23795), sequence (P23795 whole entry): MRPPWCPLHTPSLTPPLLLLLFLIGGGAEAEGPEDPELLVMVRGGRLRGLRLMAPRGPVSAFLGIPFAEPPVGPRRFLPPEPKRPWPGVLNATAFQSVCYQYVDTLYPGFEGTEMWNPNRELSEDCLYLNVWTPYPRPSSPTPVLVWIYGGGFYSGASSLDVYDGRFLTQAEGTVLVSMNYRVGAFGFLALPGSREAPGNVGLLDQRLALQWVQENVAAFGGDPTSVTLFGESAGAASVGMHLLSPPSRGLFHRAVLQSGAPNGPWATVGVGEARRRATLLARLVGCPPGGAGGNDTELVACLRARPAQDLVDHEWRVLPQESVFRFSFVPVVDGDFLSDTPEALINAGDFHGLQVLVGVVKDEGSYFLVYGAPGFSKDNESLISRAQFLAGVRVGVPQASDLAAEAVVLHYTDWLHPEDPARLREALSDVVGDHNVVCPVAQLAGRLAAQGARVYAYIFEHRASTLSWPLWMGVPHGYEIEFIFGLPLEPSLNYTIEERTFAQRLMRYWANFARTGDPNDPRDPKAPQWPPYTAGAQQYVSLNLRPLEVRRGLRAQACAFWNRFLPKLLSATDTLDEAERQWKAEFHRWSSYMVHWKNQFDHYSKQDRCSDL
Muscarinic acetylcholine receptor M3, sequence (P20309 whole entry): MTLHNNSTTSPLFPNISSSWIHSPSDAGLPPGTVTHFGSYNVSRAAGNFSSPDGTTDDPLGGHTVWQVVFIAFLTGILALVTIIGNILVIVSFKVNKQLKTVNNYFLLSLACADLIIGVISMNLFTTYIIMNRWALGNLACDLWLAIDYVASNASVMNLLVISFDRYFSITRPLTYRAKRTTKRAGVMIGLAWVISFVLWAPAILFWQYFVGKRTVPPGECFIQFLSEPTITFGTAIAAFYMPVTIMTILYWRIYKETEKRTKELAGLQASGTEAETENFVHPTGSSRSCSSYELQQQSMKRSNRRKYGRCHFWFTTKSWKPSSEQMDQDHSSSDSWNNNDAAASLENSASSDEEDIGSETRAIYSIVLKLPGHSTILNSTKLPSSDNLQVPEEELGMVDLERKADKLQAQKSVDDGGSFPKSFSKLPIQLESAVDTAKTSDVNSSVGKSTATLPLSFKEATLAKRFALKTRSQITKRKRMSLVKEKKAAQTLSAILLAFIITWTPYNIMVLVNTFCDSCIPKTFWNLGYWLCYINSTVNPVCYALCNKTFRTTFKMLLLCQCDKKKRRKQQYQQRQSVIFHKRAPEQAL
Beta-secretase 1, sequence (P56817 whole entry): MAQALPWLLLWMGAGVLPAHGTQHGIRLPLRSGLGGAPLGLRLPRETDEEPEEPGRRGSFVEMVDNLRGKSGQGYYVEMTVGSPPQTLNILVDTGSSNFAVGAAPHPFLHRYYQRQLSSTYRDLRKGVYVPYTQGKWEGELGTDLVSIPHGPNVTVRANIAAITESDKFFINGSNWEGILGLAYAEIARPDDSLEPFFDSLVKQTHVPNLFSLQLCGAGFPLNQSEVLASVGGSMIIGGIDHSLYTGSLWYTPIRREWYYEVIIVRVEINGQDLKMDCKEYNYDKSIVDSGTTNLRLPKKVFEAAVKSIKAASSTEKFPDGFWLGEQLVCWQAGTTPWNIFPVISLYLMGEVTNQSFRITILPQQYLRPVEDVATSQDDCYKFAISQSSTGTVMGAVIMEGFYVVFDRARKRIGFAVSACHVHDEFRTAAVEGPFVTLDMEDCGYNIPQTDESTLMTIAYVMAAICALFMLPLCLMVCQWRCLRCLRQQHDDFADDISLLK
Butyrylcholinesterase, sequence (Q9JKC1 whole entry): as the sequence (Q9JKC1 1-597, one chain of several) above

Work on `CNC(=O)Oc1ccc2c(c1)[C@]1(C)CCO[C@@H]1N2C` yielded a Ratio IC50 [1] of 27, an IC50 [2] of 0.0067 µM and an IC50 [3] of 0.004 µM.

Work on `CCN(CC)C(=O)OC1C[N+]2(C)CCC1CC2` (configuration not stated) yielded a Ki [4] of 1.5 µM and a Ki [5] of 3.5 µM.

For `C#CCN1CCC(CCc2cccc(OC(=O)Nc3ccccc3)c2)CC1`, the inhibition [6] was 51.9% and the inhibition at 100 µM [7] was 54%.

`CC/N=C1\CCc2c1n(C)c1ccc(OC(=O)NC)c(Cl)c21` gave an IC50 [8] of 0.16 µM, an IC50 [9] of 0.1 µM and an IC50 [10] greater than 1000 µM.

Compound `COc1cc2c(c(OC)c1)CC(NC(=O)OCc1ccccc1)C2` (configuration not stated) has a Ki [11] of 0.000261 µM, a Ki [12] of 0.00561 µM and a Ki [13] of 0.00739 µM.

Compound `CCN(C)C(=O)Oc1cccc2c1NCC2CCC(=O)OC` (configuration not stated) has an IC50 [14] of 0.008 µM and an IC50 [15] of 61.6 µM.

Compound `CCNC(=O)Oc1ccc(-c2cc(=O)c3c(O)c(O)c(O)cc3o2)cc1` has an IC50 [16] of 1.2 µM, a Ratio IC50 [17] of 18.4 and an IC50 [18] of 22.1 µM.

Compound `CC(C)c1ccc(NC(=O)Oc2ccc3c(c2)[C@]2(C)CCN(Cc4ccc(F)cc4)[C@@H]2N3C)cc1` has a Ki [19] of 0.342 µM.

For `CC(C)(C)OC(=O)Nc1ccc(O)c(C(=O)NCCCN2CCCCC2)c1`, the Ki [20] was 0.12 µM and the IC50 [21] was 0.0151 µM.

`CNC(=O)Oc1cccc2c1CCC1C2CCN1CCC1CCCCC1` (configuration not stated) gave a Ki [22] of 0.657 µM, an IC50 [23] of 0.058 µM and a Ki [24] of 1.52 µM. For the same compound, the Ki [25] was 0.132 µM.

For `C#CCN1CCC(CCc2cccc(OC(=O)N(C)CC)c2)CC1`, the inhibition [6] was 50.2% and the inhibition at 100 µM [7] was 69.4%.

`COc1cccc2c1CCCC2NS(=O)(=O)NC(=O)OCc1ccccc1` (configuration not stated) gave an IC50 [12] of 0.00449 µM, an IC50 [26] of 0.000209 µM and an IC50 [13] of 0.00494 µM.

Compound `CNC(=O)Oc1cccc(CN(C)CCCCCCCOc2ccc(-c3cc(=O)c4ccccc4o3)cc2)c1` has an IC50 [27] of 0.00073 µM, an IC50 [28] of 0.0702 µM and a Ratio IC50 [29] of 96.

Work on `O=C(CCCCC1CCSS1)O[C@@H]1CO[C@H]2[C@@H]1OC[C@@H]2OC(=O)NCc1ccccc1` (some centres not stated) yielded a Ratio IC50 [30] of 667.

Work on `COc1ccc(NC(=O)Oc2ccc3c(c2)[C@]2(O)CCN(C(C)=O)[C@@H]2N3)cc1` yielded an IC50 [31] greater than 100 µM, a Ratio IC50 [32] greater than 43 and an IC50 [33] of 2.31 µM.
